Test results: US12565489B2, “Heterocyclyl pyrimidines and triazines as novel fungicides” (Bayer Aktiengesellschaft, priority 2020, dated 2026)
Where two headings read alike, the source gives them in different places.

Assays:
[1] = Measurement of Log P values by HPLC on reversed phase columns (EEC directive 79/831 Annex V.A8); format: physicochemical
Procedure: Measurement of Log P values as provided herein was performed according to EEC directive 79/831 Annex V.A8 by HPLC (High Performance Liquid Chromatography) on reversed phase columns with the following methods: • ^[a] Log P value is determined by measurement of LC-UV, in an acidic range, with 0.1% formic acid in water and acetonitrile as eluent (linear gradient from 10% acetonitrile to 95% acetonitrile). • ^[b] Log P value is determined by measurement of LC-UV, in a neutral range, with 0.001 molar ammonium acetate solution in water and acetonitrile as eluent (linear gradient from 10% acetonitrile to 95% acetonitrile). • ^[c] Log P value is determined by measurement of LC-UV, in an acidic range, with 0.1% phosphoric acid and acetonitrile as eluent (linear gradient from 10% acetonitrile to 95% acetonitrile).
If more than one Log P value is available within the same method, all the values are given and separated by “+”.
Calibration was done with straight-chain alkan2-ones (with 3 to 16 carbon atoms) with known Log P values (measurement of Log P values using retention times with linear interpolation between successive alkanones). Lambda-max-values were determined using UV-spectra from 200 nm to 400 nm and the peak values of the chromatographic signals

Alternaria alternata = Alternaria alternata in vitro cell test; format: cell-based; settings: 120 h, 20 ppm of active ingredient, 5 days incubation, liquid culture, spectrometric measurement of mycelium growth, read-out: efficacy (inhibition of fungal growth)
Procedure: (§1) • Solvent: DMSO • Culture medium: 14.6 g anhydrous D-glucose (VWR), 7.1 g Mycological Peptone (Oxoid), 1.4 g granulated Yeast Extract (Merck), QSP 1 liter • Inoculum: spore suspension Fungicides were solubilized in DMSO and the solution used to prepare the required range of concentrations. […] A spore suspension of A. alternata was prepared and diluted to the desired spore density. Fungicides were evaluated for their ability to inhibit spore germination and mycelium growth in liquid culture assay. The compounds were added in the desired concentration to the culture medium with spores. After 5 days incubation, fungi-toxicity of compounds was determined by spectrometric measurement of mycelium growth. Inhibition of fungal growth was determined by comparing the absorbance values in wells containing the fungicides with the absorbance in control wells without fungicides.

Pyrenophora teres = Pyrenophora teres in vitro cell test; format: cell-based; settings: 144 h, 20 ppm of active ingredient, 6 days incubation, liquid culture, spectrometric measurement of mycelium growth, read-out: efficacy (inhibition of fungal growth)
Procedure: as §1, with “P. teres” for “A. alternata”, “6” for “5”

[2] = test system: Colletotrichum lindemuthianum; assay: Colletotrichum lindemuthianum in vitro cell test; format: cell-based; settings: 144 h, 20 ppm of active ingredient, 6 days incubation, liquid culture, spectrometric measurement of mycelium growth, read-out: efficacy (inhibition of fungal growth)
Procedure: as §1, with “of C. lindemuthianum” for “of A. alternata”, “inhibit spores” for “inhibit spore”, “After 6” for “After 5”

Botrytis cinerea = Botrytis cinerea in vitro cell test; format: cell-based; settings: 144 h, 20 ppm of active ingredient, 6 days incubation, liquid culture, spectrometric measurement of mycelium growth, read-out: efficacy (inhibition of fungal growth)
Procedure: • Solvent: DMSO • Culture medium: 1 g KH2PO4 (VWR), 1 g K2HPO4 (VWR), 0.5 g Urea (VWR), 3 g KNO3 (Prolabo), 10 g saccharose (VWR), 0.5 g MgSO4, 7H2O (Sigma), 0.07 g CaCl2, 2H2O (Prolabo), 0.2 mg MnSO4, H2O (Sigma), 0.6 mg CuSO4, 5H2O (Sigma), 7.9 mg ZnSO4, 7H2O (Sigma), 0.1 mg H3BO3 (Merck), 0.14 mg NaMoO4, 2H2O (Sigma), 2 mg thiamine (Sigma), 0.1 mg biotine (VWR), 4 mg FeSO4, 7H2O (Sigma), QSP 1 liter • Inoculum: spore suspension Fungicides were solubilized in DMSO and the solution used to prepare the required range of concentrations. […] A spore suspension of B. cinerea was prepared and diluted to the desired spore density. Fungicides were evaluated for their ability to inhibit spore germination and mycelium growth in liquid culture assay. The compounds were added in the desired concentration to the culture medium with spores. After 6 days incubation, fungi-toxicity of compounds was determined by spectrometric measurement of mycelium growth. Inhibition of fungal growth was determined by comparing the absorbance values in wells containing the fungicides with the absorbance in control wells without fungicides.

[3] = method [a]: LC-UV, acidic range, 0.1% formic acid in water and acetonitrile as eluent, read-out: LogP

| SMILES | chromatographic logP ([1]; LogP) | also measured |
| --- | --- | --- |
| N[C@H](CCl)Cc1ccc(SC(F)(F)F)cc1 (racemic) [Compound 9-02] |  | chromatographic logP [1, 3]: 1.68 |
| CSc1ncc(Br)c(C2=NOC[C@@H](Cc3ccc(C)cc3Cl)N2)n1 (racemic) [Compound 7-03] | 4.08 |  |
| C#Cc1cccc(Oc2cnc(C)nc2C(=O)O)c1 [Compound 1-05] | 1.77 |  |
| Cc1ccc(CC2CON=C(c3nc(C)ncc3Br)N2)c(C)c1 (racemic) [Compound 7-01, (5RS)-3-(5-bromo-2-methylpyrimidin-4-yl)-5-(2,4-dimethylbenzyl)-5,6-dihydro-4H-1,2,4-oxadiazine] | 3.05 |  |
| C=Cc1cccc(Oc2cnc(C)nc2C(=O)O)c1 [Compound 1-06] | 1.87 |  |
| O=C(O)c1nc(C2CC2)ncc1Oc1cccc(C(F)(F)F)c1 [Compound 1-02, 2-cyclopropyl-5-[3-(trifluoromethyl)phenoxy]pyrimidine-4-carboxylic acid] | 2.49 |  |
| N[C@H](CCl)Cc1csc(C(F)(F)F)c1 (racemic) [Compound 9-03] |  | chromatographic logP [1, 3]: 1.29 |
| Cc1ncc(Oc2cccc(C(F)(F)F)c2)c(C2=NOCC(Cc3ccc(C#C[Si](C)(C)C)cc3C)N2)n1 (racemic) [Compound I-010, trimethyl-[2-[3-methyl-4-[[(5RS)-3-[2-methyl-5-[3-(trifluoro-methyl)phenoxy]pyrimidin-4-yl]-5,6-dihydro-4H-1,2,4-oxadiazin-5-yl]methyl]phenyl]ethynyl]silane] |  | chromatographic logP [1, 3]: 5.79 |
| CSc1ncc(Br)c(C(=O)N[C@@H](CON2C(=O)c3ccccc3C2=O)Cc2ccc(C)cc2Cl)n1 (racemic) [Compound 3-03] | 4.62 |  |
| CSc1ncc(Br)c(C(=O)N[C@@H](CON)Cc2ccc(C)cc2Cl)n1 (racemic) [Compound 4-03] | 2.58 |  |
| Cc1ncc(Oc2cccc(Cl)c2F)c(C(=O)O)n1 [Compound 1-08] | 1.91 |  |
| CSc1ncc(Br)c(C2=NOC[C@@H](Cc3ccc(C)cc3C)N2)n1 (racemic) [Compound 7-02] | 4.05 |  |
| Cc1ccc(CC(CON2C(=O)c3ccccc3C2=O)NC(=O)c2nc(C3CC3)ncc2Oc2cccc(C(F)(F)F)c2)c(C)c1 (racemic) [Compound 3-01, 2-cyclopropyl-N-{(2RS)-1-(2,4-dimethylphenyl)-3-[(1,3-dioxo-1,3-dihydro-2H-isoindol-2-yl)oxy]propan-2-yl}-5-[3-(trifluoromethyl)phenoxy]pyrimidine-4-carboxamide] | 5.4 |  |
| C#Cc1cccc(Oc2cnc(C)nc2C(=O)N[C@@H](CON)Cc2ccc(C)cc2C)c1 (racemic) [Compound 4-02] | 2.53 |  |
| Cc1ncc(Oc2cccc(C3CC3)c2F)c(C(=O)O)n1 [Compound 1-07] | 2.2 |  |

Now from value to compound, other results behind:

| chromatographic logP ([1]; LogP) | SMILES | also measured |
| --- | --- | --- |
| 4.66 | Cc1ncc(Oc2cccc(C(F)(F)F)c2)c(C(=NO)N[C@@H](CCl)Cc2ccc(SC(F)(F)F)cc2)n1 (racemic) [Compound 11-10] |  |
| 4.61 | Cc1ccc(C[C@H](CCl)NC(=O)c2nc(C)ncc2Oc2cccc(Cl)c2)c(Cl)c1 (racemic) [Compound 10-04] |  |
| 4.08 | Cc1ncc(Oc2cccc(C(F)(F)F)c2)c(C(=NO)N[C@@H](CCl)Cc2ccc(OC(F)F)cc2Cl)n1 (racemic) [Compound 11-09] |  |
| 4.37 | Cc1ncc(Oc2cccc(C(F)(F)F)c2)c(C(=O)N[C@@H](CCl)Cc2ccc(C(F)F)cc2Cl)n1 (racemic) [Compound 10-10] |  |
| 1.66 | Cc1ncc(Oc2cccc(Cl)c2)c(C(N)=NO)n1 [Compound 17-01, 5-(3-chlorophenoxy)-N′-hydroxy-2-methyl-pyrimidine-4-carboxamidine] |  |
| 3.07 | Cc1ncc(Oc2cccc(Cl)c2)c(C#N)n1 [Compound 16-01] |  |
| 4.12 | Cc1ncc(Oc2cccc(C(F)(F)F)c2)c(C(=NO)N[C@@H](CCl)Cc2csc(C(F)(F)F)c2)n1 (racemic) [Compound 11-08] |  |
| 4.62 | Cc1ccc(C[C@H](CCl)NC(=NO)c2nc(C)ncc2Oc2cccc(C3CC3)c2F)c(Cl)c1 (racemic) [Compound 11-03] |  |
| 4.74 | Cc1ccc(C[C@H](CCl)NC(=O)c2nc(C)ncc2Oc2cccc(C(F)(F)F)c2)c(Cl)c1 (racemic) [Compound 10-02] |  |
| 0.69 | Cc1ccc(C[C@H](N)CC(N)=O)c(C)c1 (racemic) [Compound 9-04] |  |
| 4.51 | Cc1ncc(Oc2cccc(C(F)(F)F)c2)c(C(=O)N[C@@H](CCl)Cc2ccc(OC(F)F)cc2Cl)n1 (racemic) [Compound 10-08] |  |
| 4.16 | Cc1ccc(C[C@H](CCl)NC(=NO)c2nc(C)ncc2Oc2cccc(Cl)c2F)c(Cl)c1 (racemic) [Compound 11-06] |  |
| 4.86 | Cc1ccc(C[C@H](CCl)NC(=O)c2nc(C)ncc2Oc2cccc(C3CC3)c2F)c(C)c1 (racemic) [Compound 10-11] |  |
| 4.93 | Cc1ccc(C[C@H](CCl)NC(=O)c2nc(C)ncc2Oc2cccc(C3CC3)c2F)c(Cl)c1 (racemic) [Compound 10-03] |  |
| 4.55 | Cc1ncc(Oc2cccc(C(F)(F)F)c2)c(C(=O)N[C@@H](CCl)Cc2csc(C(F)(F)F)c2)n1 (racemic) [Compound 10-07] |  |
| 3.8 | Cc1ccc([C@@H]2CON=C(c3nc(C)ncc3Oc3cccc(Cl)c3)N2)c(C)c1 (racemic) [Compound I-034] | inhibition at 20 ppm (Alternaria alternata): 90 to 100%; inhibition at 20 ppm (Pyrenophora teres): 90 to 100%; inhibition at 20 ppm [2]: 70 to 79%; inhibition at 20 ppm (Botrytis cinerea): 90 to 100% |
| 4.15 | Cc1ncc(Oc2cccc(Cl)c2)c(C(N)=NOCC(=O)c2ccc3c(c2)CCC3)n1 [Compound 19-01] |  |
| 4.31 | Cc1ccc(C[C@H](CCl)NC(=NO)c2nc(C)ncc2Oc2cccc(C(F)(F)F)c2)c(Cl)c1 (racemic) [Compound 11-02] |  |
| 0.55 | Cc1ccc([C@H](N)CC(N)=O)c(C)c1 (racemic) [Compound 9-05] |  |
| 4.01 | COc1ccc(C[C@H](CCl)NC(=NO)c2nc(C)ncc2Oc2cccc(C(F)(F)F)c2)c(Cl)c1 (racemic) [Compound 11-01] |  |
| 4.02 | Cc1ncc(Oc2cccc(C(F)(F)F)c2)c(C(=NO)N[C@@H](CCl)Cc2ccc(C(F)F)cc2Cl)n1 (racemic) [Compound 11-11] |  |
